According to PubChem BioAssay (NCI):
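How tested: cells in 96-well plates exposed to compound for 48 hours at five concentrations. The concentration for 50% growth inhibition is given as GI50. At the TGI there is no net growth.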

Columns and labels:
Assay in all cases: DTP human tumour cell line panel, 48 h
[1] = system: SF-268 CNS
[2] = system: SK-OV-3 ovarian
[3] = system: M14 melanoma
[4] = system: NCI-H23 lung
[5] = system: UACC-257 melanoma
[6] = system: MDA-MB-231 breast
[7] = system: UO-31 renal
[8] = system: HCT-15 colon
[9] = system: SK-MEL-5 melanoma
[10] = system: SK-MEL-2 melanoma
[11] = system: COLO 205 colon
[12] = system: BT-549 breast
[13] = system: UACC-62 melanoma
[14] = system: A549 NSCLC
[15] = system: OVCAR-8 ovarian
[16] = system: NCI-H226 lung
[17] = system: HOP-92 NSCLC
[18] = system: SW-620 colon
[19] = system: HOP-62 NSCLC
[20] = system: T-47D breast
[21] = system: OVCAR-4 ovarian
[22] = system: RPMI-8226 leukemia
[23] = system: MDA-MB-468 breast
[24] = system: HS 578T breast
[25] = system: SN12C renal
[26] = system: LOX IMVI melanoma
[27] = system: HCT-116 colon
[28] = system: 786-0 renal
[29] = system: NCI-H460 lung
[30] = system: HL-60(TB) leukemia
[31] = system: CCRF-CEM leukemia
[32] = system: SK-MEL-28 melanoma
[33] = system: OVCAR-3 ovarian
[34] = system: SNB-75 CNS
[35] = system: SR leukemia
[36] = system: SF-539 CNS
[37] = system: HCC-2998 colon
[38] = system: A498 renal
[39] = system: RXF 393 renal
[40] = system: MALME-3M melanoma
[41] = system: MOLT-4 leukemia
[42] = system: KM12 colon
[43] = system: PC-3 prostate
[44] = system: CAKI-1 renal
[45] = system: NCI-H522 lung
[46] = system: SF-295 CNS
[47] = system: TK-10 renal
[48] = system: DU-145 prostate
[49] = system: OVCAR-5 ovarian
[50] = system: IGROV1 ovarian
[51] = system: MDA-MB-435
[52] = system: U251 CNS
[53] = system: K-562 leukemia
[54] = system: ACHN renal
[55] = system: HT29 colon
[56] = system: MCF7 breast
[57] = system: SNB-19 CNS
[58] = system: EKVX NSCLC

SMILES: COc1ccc(-c2ccnc(SCc3cc4cc(Cl)ccc4[nH]c3=O)n2)cc1
- GI50 [1]: 3.41 µM
- TGI [1]: 20.4 µM
- GI50 [2]: 4.97 µM
- TGI [2]: 21.2 µM
- GI50 [3]: 25 µM
- TGI [3]: > 100 µM
- GI50 [4]: 13.7 µM
- TGI [4]: 45.1 µM
- GI50 [5]: 16.4 µM
- TGI [5]: 82 µM
- GI50 [6]: 9.03 µM
- TGI [6]: 32.2 µM
- GI50 [7]: 14.5 µM
- TGI [7]: 54.4 µM
- GI50 [8]: 29 µM
- TGI [8]: > 100 µM
- GI50 [9]: 14.2 µM
- TGI [9]: 71.6 µM
- GI50 [10]: 14.6 µM
- TGI [10]: 39.2 µM
- GI50 [11]: 44.8 µM
- TGI [11]: > 100 µM
- GI50 [12]: 6.21 µM
- TGI [12]: 33.2 µM
- GI50 [13]: 14.8 µM
- TGI [13]: 53.2 µM
- GI50 [14]: 15.6 µM
- TGI [14]: > 100 µM
- GI50 [15]: 4.9 µM
- TGI [15]: > 100 µM
- GI50 [16]: 2.96 µM
- TGI [16]: 10.4 µM
- GI50 [17]: 5.49 µM
- TGI [17]: 39.8 µM
- GI50 [18]: 26.2 µM
- TGI [18]: > 100 µM
- GI50 [19]: 3.45 µM
- TGI [19]: 16.6 µM
- GI50 [20]: 19.7 µM
- TGI [20]: > 100 µM
- GI50 [21]: 3.85 µM
- TGI [21]: 24.5 µM
- GI50 [22]: 16.8 µM
- TGI [22]: > 100 µM
- GI50 [23]: 5.59 µM
- TGI [23]: 35.9 µM
- GI50 [24]: 2.77 µM
- TGI [24]: 9.75 µM
- GI50 [25]: 11.6 µM
- TGI [25]: > 100 µM
- GI50 [26]: 15 µM
- TGI [26]: > 100 µM
- GI50 [27]: 14 µM
- TGI [27]: > 100 µM
- GI50 [28]: 15.1 µM
- TGI [28]: 36.5 µM
- GI50 [29]: 5.63 µM
- TGI [29]: 58.7 µM
- GI50 [30]: > 100 µM
- TGI [30]: > 100 µM
- GI50 [31]: 16 µM
- TGI [31]: > 100 µM
- GI50 [32]: 7.39 µM
- TGI [32]: 31.6 µM
- GI50 [33]: 9.93 µM
- TGI [33]: 27.2 µM
- GI50 [34]: 1.69 µM
- TGI [34]: 3.98 µM
- GI50 [35]: 21.6 µM
- TGI [35]: > 100 µM
- GI50 [36]: 3.16 µM
- TGI [36]: 14.8 µM
- GI50 [37]: 27.6 µM
- TGI [37]: > 100 µM
- GI50 [38]: 17.5 µM
- TGI [38]: 46.2 µM
- GI50 [39]: 2.27 µM
- TGI [39]: 8.31 µM
- GI50 [40]: 4.72 µM
- TGI [40]: 27.4 µM
- GI50 [41]: 38.6 µM
- TGI [41]: > 100 µM
- GI50 [42]: 19.9 µM
- TGI [42]: > 100 µM
- GI50 [43]: 6.9 µM
- TGI [43]: 45.7 µM
- GI50 [44]: 7.7 µM
- TGI [44]: 27.1 µM
- GI50 [45]: 5.18 µM
- TGI [45]: 32.4 µM
- GI50 [46]: 5.49 µM
- TGI [46]: 26.8 µM
- GI50 [47]: 26.3 µM
- TGI [47]: 90 µM
- GI50 [48]: 10.2 µM
- TGI [48]: 24.2 µM
- GI50 [49]: 21 µM
- TGI [49]: 85.8 µM
- GI50 [50]: 27.1 µM
- TGI [50]: > 100 µM
- GI50 [51]: 14.4 µM
- TGI [51]: > 100 µM
- GI50 [52]: 13.5 µM
- TGI [52]: 46.6 µM
- GI50 [53]: 31.2 µM
- TGI [53]: > 100 µM
- GI50 [54]: 5.64 µM
- TGI [54]: 19.8 µM
- GI50 [55]: 53.6 µM
- TGI [55]: > 100 µM
- GI50 [56]: 8.74 µM
- TGI [56]: 58.1 µM
- GI50 [57]: 3.7 µM
- TGI [57]: 28.6 µM
- GI50 [58]: 12.2 µM
- TGI [58]: 64.9 µM
